One experiment deals with FGFR2 (h) (Homo sapiens, UniProt P21802). Description: FGFR2 (enzymatic assay), TR-FRET. The format is biochemical. The conditions noted are these: read-out: FGFR 2 pIC50 (converted). Here is the method: In a final reaction volume of 30 μL, FGFR2 (h) (150 ng/ml) was incubated with 50 mM HEPES pH 7.5, 6 mM MnCl2, 1 mM DTT, 0.1 mM Na3VO4, 0.01% Triton-X-100, 500 nM Btn-Flt3 and 0.4 μM ATP in the presence of compound (1% DMSO final). […] Time-Resolved Fluorescence Resonance Energy Transfer (TR-FRET) signal (ex340 nm. Em 620 nm, em 655 nm) was measured afterwards and results are expressed in (Relative Fluorescence Units).
Sequence of FGFR2 (h) (P21802 22-821): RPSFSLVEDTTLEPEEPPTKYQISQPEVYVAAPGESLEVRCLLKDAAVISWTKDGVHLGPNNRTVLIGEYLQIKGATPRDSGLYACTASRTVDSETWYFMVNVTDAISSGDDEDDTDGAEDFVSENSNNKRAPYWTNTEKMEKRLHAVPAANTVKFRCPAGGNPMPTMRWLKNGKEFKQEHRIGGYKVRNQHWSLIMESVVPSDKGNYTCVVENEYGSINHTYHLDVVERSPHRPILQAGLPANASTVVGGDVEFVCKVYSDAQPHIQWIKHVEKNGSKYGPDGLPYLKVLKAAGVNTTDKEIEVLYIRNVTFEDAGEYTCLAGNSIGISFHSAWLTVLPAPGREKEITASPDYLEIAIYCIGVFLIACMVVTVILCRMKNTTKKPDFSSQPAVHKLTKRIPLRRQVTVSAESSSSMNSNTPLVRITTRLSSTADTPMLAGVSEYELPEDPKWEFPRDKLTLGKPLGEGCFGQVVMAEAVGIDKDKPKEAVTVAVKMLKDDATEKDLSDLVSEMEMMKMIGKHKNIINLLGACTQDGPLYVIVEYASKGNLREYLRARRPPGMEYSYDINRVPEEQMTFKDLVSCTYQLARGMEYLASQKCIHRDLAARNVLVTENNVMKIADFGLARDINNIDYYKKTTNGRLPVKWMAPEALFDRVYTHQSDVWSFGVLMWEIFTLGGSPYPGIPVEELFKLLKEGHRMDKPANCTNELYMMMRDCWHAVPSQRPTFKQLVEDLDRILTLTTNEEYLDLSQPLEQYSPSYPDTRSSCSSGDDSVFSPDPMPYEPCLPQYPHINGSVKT

Experiment [1] concerns the target Ba/F3-KDR-transfected cells (Homo sapiens, UniProt P35968). Description: Ba/F3-KDR (minus IL3) cellular proliferation assay, Alamar Blue. In kind it is cell-based. Conditions: minus IL3. An outline of the steps: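 Compound in DMSO was combined with Ba/F3-KDR-transfected cells in RPMI-1640, 10% FBS, 2 mM L-glutamine. After 24 h incubation at 37 °C, Alamar Blue was added for a further 4 h, then relative fluorescence units were measured.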

In experiment [2] the target is Ba/F3-FGFR1-transfected cells (Homo sapiens, UniProt P11362). Description: Ba/F3-FGFR1 (minus IL3) cellular proliferation assay, Alamar Blue. In kind it is cell-based. The conditions noted are these: minus IL3, 384 well. The essentials:
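Compound dilutions in DMSO are combined with transfected cells in phenol red-free RPMI-1640 containing 10% FBS and L-glutamine. Plates incubate 24 h at 37 °C and 5% CO2. Viability is then scored by 4 h Alamar Blue conversion, read as fluorescence (540 nm excitation, 590 nm emission).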

For experiment [3], the target named is Ba/F3-FGFR4-transfected cells (Homo sapiens, UniProt P22455). The experiment can be described thus: Ba/F3-FGFR4 cellular proliferation assay, Alamar Blue. The format is cell-based. The essentials:
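Alamar Blue fluorescence (540/590 nm, 4 h development) measured growth of FGFR4-transfected Ba/F3 cells after 24 h compound treatment at 37° C. Cells were seeded at 20000/well in RPMI-1640, 10% FBS.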

Sequence of Ba/F3-FGFR4-transfected cells (P22455 whole entry, change not shown): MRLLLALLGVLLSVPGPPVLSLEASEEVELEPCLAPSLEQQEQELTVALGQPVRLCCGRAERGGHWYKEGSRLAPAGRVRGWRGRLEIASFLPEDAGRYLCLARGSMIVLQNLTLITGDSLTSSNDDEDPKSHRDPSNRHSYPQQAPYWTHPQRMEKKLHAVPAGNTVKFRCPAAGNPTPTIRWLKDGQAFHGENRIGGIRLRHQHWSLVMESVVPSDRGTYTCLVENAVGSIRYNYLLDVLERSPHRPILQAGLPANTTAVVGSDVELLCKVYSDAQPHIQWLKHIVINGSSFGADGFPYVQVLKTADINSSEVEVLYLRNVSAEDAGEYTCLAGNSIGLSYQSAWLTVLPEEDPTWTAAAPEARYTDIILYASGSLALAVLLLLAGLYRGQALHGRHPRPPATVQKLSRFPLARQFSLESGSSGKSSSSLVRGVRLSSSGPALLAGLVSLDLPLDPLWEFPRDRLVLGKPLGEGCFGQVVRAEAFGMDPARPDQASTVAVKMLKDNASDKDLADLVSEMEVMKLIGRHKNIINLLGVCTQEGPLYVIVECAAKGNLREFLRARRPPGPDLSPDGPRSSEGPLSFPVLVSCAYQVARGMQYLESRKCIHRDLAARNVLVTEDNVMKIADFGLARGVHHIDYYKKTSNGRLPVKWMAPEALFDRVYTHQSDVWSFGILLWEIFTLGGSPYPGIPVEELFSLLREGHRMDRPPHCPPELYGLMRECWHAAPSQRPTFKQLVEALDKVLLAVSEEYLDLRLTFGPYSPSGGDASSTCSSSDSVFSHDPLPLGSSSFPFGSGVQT
Sequence of Ba/F3-FGFR1-transfected cells (P11362 whole entry, change not shown): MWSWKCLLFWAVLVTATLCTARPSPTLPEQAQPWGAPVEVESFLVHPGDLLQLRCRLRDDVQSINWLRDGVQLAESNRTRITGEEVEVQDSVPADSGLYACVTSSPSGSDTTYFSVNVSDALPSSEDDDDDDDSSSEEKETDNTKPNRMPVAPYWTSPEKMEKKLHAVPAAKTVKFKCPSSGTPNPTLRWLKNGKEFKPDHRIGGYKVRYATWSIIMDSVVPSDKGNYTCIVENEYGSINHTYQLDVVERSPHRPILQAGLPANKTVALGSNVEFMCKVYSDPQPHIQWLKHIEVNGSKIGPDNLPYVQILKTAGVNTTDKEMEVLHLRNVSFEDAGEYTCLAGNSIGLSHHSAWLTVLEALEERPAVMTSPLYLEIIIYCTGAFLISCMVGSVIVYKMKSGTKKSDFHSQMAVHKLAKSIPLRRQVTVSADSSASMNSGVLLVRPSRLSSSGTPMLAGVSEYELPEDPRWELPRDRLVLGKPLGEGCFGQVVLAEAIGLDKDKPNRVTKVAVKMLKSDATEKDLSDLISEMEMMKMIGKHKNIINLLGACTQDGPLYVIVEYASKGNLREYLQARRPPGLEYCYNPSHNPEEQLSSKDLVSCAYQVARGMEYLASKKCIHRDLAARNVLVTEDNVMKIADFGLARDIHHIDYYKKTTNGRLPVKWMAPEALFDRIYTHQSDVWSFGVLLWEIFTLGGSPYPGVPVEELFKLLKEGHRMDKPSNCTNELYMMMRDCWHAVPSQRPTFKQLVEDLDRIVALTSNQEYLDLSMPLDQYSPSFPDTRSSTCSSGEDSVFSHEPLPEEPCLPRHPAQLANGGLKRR
Sequence of Ba/F3-KDR-transfected cells (P35968 whole entry, change not shown): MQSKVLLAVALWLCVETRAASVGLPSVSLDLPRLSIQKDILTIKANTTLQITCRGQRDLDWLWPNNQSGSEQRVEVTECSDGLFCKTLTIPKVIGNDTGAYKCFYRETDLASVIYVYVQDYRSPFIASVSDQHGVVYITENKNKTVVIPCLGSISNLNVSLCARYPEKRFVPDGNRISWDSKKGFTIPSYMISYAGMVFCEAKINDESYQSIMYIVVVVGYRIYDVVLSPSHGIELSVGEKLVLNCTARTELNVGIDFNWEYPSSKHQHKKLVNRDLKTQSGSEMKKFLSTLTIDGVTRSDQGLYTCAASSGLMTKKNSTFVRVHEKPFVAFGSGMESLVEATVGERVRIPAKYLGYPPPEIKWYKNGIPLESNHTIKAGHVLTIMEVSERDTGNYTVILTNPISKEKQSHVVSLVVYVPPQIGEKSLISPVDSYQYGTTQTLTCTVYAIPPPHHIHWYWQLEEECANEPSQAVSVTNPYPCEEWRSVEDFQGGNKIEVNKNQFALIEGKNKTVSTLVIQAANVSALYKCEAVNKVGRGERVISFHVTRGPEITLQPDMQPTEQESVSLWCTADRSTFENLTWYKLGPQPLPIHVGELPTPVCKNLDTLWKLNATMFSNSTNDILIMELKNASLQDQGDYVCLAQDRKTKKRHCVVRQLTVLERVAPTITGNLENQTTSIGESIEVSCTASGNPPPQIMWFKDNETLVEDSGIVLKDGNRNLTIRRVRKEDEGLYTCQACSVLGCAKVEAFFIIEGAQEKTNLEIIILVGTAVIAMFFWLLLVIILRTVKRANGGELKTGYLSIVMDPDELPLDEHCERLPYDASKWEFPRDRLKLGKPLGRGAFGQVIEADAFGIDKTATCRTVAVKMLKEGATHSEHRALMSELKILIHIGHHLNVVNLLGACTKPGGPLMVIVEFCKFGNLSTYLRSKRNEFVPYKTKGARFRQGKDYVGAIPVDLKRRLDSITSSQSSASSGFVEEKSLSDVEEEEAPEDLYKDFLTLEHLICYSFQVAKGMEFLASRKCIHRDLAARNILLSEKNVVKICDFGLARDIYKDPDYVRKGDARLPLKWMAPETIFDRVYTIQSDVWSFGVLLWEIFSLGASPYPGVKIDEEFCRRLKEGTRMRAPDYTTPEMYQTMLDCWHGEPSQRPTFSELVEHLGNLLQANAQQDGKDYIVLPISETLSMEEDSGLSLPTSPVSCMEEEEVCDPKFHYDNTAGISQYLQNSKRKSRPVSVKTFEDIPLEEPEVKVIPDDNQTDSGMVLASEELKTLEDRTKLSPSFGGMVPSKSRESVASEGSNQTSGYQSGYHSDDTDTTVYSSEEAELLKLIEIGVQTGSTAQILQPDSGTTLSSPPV

On to `COc1cc(OC)cc(N(CC2CC2)c2ccc3ncc(-c4ocnc4C)nc3c2)c1` [Compound 104], for which the IC50 on FGFR2 (h) was roughly 0.417 µM. In experiment [1], the “BAF3-KDR (MIN IL3) 384 well pIC50” value is less than 5. In addition, the “BAF3-FGFR 1 (MIN IL3) 384 well pIC50” value in experiment [2] was less than 5. The “BAF3-FGFR4 pIC50” value in experiment [3] is less than 5.
For `COc1cc(OC)cc(N(CC2CC2)c2ccc3ncc(-n4cnc(CO)c4)nc3c2)c1` [Compound 105], the IC50 at FGFR2 (h) is 0.0407 µM. The “BAF3-KDR (MIN IL3) 384 well pIC50” value in experiment [1] is given as less than 5. In experiment [2], the “BAF3-FGFR 1 (MIN IL3) 384 well pIC50” value was found to be 5.32. In experiment [3], the “BAF3-FGFR4 pIC50” value came to 5.53.
Consider `COc1cc(OC)cc(N(CCO)c2ccc3ncc(-c4ccc(N)nc4)nc3c2)c1` [Compound 106], for which the IC50 on FGFR2 (h) is 0.00582 µM. Moreover, in experiment [1], the “BAF3-KDR (MIN IL3) 384 well pIC50” value came to 5.335. Further, in experiment [2], the “BAF3-FGFR 1 (MIN IL3) 384 well pIC50” value was 6.455. In addition, in experiment [3], the “BAF3-FGFR4 pIC50” value turned out to be 6.3.
For `COc1cc(OC)cc(N(CC2CO2)c2ccc3ncc(-c4ccc(N)nc4)nc3c2)c1` (stereo not drawn) [Compound 110], in that order: 0.0174 µM, 5.45, 6.25 and 6.2.
In the case of `COc1cc(OC)cc(N(CCO)c2ccc3ncc(-c4ccc(OC)nc4)nc3c2)c1` [Compound 111], the IC50 at FGFR2 (h) is 0.0234 µM. The “BAF3-KDR (MIN IL3) 384 well pIC50” value in experiment [1] is recorded as less than 5. Further, the “BAF3-FGFR 1 (MIN IL3) 384 well pIC50” value in experiment [2] was determined as 5.65. The “BAF3-FGFR4 pIC50” value in experiment [3] stood at 5.9.
For `COc1cc(OC)cc(N(CCCO)c2ccc3ncc(-c4cccnc4)nc3c2)c1` [Compound 112], in that order: 0.0209 µM, less than 5, 6.11 and 5.8.
As for `CNC(=O)c1cc(-c2cnc3ccc(N(CCNCC(F)(F)F)c4cc(OC)cc(OC)c4)cc3n2)ccn1` [Compound 113], the IC50 on FGFR2 (h) is 0.0457 µM. Further, the “BAF3-KDR (MIN IL3) 384 well pIC50” value in experiment [1] is recorded as less than 5. Further, the “BAF3-FGFR 1 (MIN IL3) 384 well pIC50” value in experiment [2] was found to be 5.44. Besides, the “BAF3-FGFR4 pIC50” value in experiment [3] is 5.5.
Regarding `COc1cc(OC)cc(N(CCCO)c2ccc3ncc(-c4ccc(C)nc4)nc3c2)c1` [Compound 115], the IC50 on FGFR2 (h) is 0.0135 µM. Moreover, the “BAF3-KDR (MIN IL3) 384 well pIC50” value in experiment [1] amounted to 5.06. In experiment [2], the “BAF3-FGFR 1 (MIN IL3) 384 well pIC50” value was determined as 5.93. The “BAF3-FGFR4 pIC50” value in experiment [3] is listed as 5.7.
For `CNc1ccc(-c2cnc3ccc(N(CCCO)c4cc(OC)cc(OC)c4)cc3n2)cn1` [Compound 116], in that order: 0.0107 µM, 5.19, 5.9 and 6.4.
In the same order, the values of `COc1cc(OC)cc(N(CCCO)c2ccc3ncc(-c4ccc(F)nc4)nc3c2)c1` [Compound 117] are 0.0224 µM, less than 5, 6.67 and 5.5.
For `COc1cc(OC)cc(N(CCO)c2ccc3ncc(-c4ccccc4)nc3c2)c1` [Compound 120], in that order: 0.0151 µM, less than 5, 5.71 and 6.0.
Turning to `COc1cc(OC)cc(N(CCNC(C)C)c2ccc3ncc(-c4ccccc4)nc3c2)c1` [Compound 121], at FGFR2 (h), the IC50 is 0.00372 µM. In addition, the “BAF3-KDR (MIN IL3) 384 well pIC50” value in experiment [1] is roughly 5.3. Further, in experiment [2], the “BAF3-FGFR 1 (MIN IL3) 384 well pIC50” value was found to be 6.45. In experiment [3], the “BAF3-FGFR4 pIC50” value is 6.4.
For `CNC(=O)c1cc(-c2cnc3ccc(N(CCCNCC(F)(F)F)c4cc(OC)cc(OC)c4)cc3n2)ccn1` [Compound 122], in that order: 0.0468 µM, less than 5, 5.29 and roughly 5.1.
In the same order, the values of `COc1cc(OC)cc(N(CCO)c2ccc3ncc(-c4ccnc(C(=O)NCCCN)c4)nc3c2)c1` [Compound 123] are 0.0257 µM, less than 5, 5.22 and 5.2.
Regarding `COc1cc(OC)cc(N(CCCO)c2ccc3ncc(-c4ccc(N(C)C(=O)OC(C)(C)C)nc4)nc3c2)c1` [Compound 125], the IC50 on FGFR2 (h) is 0.309 µM. For the same molecule, in experiment [1], the “BAF3-KDR (MIN IL3) 384 well pIC50” value was less than 5. Moreover, the “BAF3-FGFR 1 (MIN IL3) 384 well pIC50” value in experiment [2] was 5.37. Moreover, the “BAF3-FGFR4 pIC50” value in experiment [3] was less than 5.
As for `COc1cc(OC)cc(N(CCCO)c2ccc3ncc(-c4ccnc(C(=O)NCCCCN)c4)nc3c2)c1` [Compound 126], at FGFR2 (h), the IC50 is 0.0331 µM. The “BAF3-KDR (MIN IL3) 384 well pIC50” value in experiment [1] was less than 5. Further, the “BAF3-FGFR 1 (MIN IL3) 384 well pIC50” value in experiment [2] is on record as 5.31. In addition, in experiment [3], the “BAF3-FGFR4 pIC50” value worked out at 5.1.
In the same order, the values of `COc1cc(OC)cc(N(CCCNCC(F)(F)F)c2ccc3ncc(-c4ccc(N(C)C(=O)OC(C)(C)C)nc4)nc3c2)c1` [Compound 127] are 0.363 µM, less than 5, less than 5 and less than 5.
In the same order, the values of `COc1cc(OC)cc(N(CCCO)c2ccc3ncc(-c4ccnc(NC(=O)OC(C)(C)C)c4)nc3c2)c1` [Compound 128] are 0.135 µM, less than 5, less than 5 and less than 5.

Values taken from patent US10052320B2, “Substituted quinoxalines as FGFR kinase inhibitors” (ASTEX THERAPEUTICS LIMITED, priority 2011, dated 2018).
